According to EP0288055B1, “Use of ODC inhibitors, dacarbazine, and interferon, in the treatment of malignant melanoma” (MERRELL DOW PHARMACEUTICALS INC., priority 1987, dated 1988):

Tested on: B16 melanoma
Assay: Effect on the growth of B16 melanoma in mice (tumor weight at sacrifice)
Format: in vivo
Conditions: for Tumor Weight (g) (Mean ± S.E.): B16 melanoma cells (1 x 10^5 cells/animal) S.C., tumors weighed on day 18, DFMO 2% in drinking water day 1-18, DTIC 6.25 mg/Kg i.p. once daily day 1-15, IFN 1000 units/animal S.C. alternate days day 2-18; for % Inhibition: inhibition of tumor weight vs control on day 18, same dosing as for tumor weight
Description: EFFECT OF A COMBINATION OF α-DIFLUOROMETHYLORNITHINE (DFMO), DACARBAZINE (DTIC) AND α-INTERFERON (IFN) ON THE GROWTH OF B16 MELANOMA IN MICE

| SMILES | Tumor Weight (g) (Mean ± S.E.) | % Inhibition |
| --- | --- | --- |
| NCCC[C@](N)(C(=O)O)C(F)F [DFMO, α-difluoromethyl ornithine] | 1.02 ± 0.15 g | 86.0% |
| CN(C)N=Nc1[nH]cnc1C(N)=O [DTIC, 5-(3,3-Dimethyl-1-triazenyl)-1H-imidazole-4-carboxamide] | 3.2 ± 0.63 g | 35.0% |
